Patent US8030336B2, “Nicotinamide-based kinase inhibitors” (YM Biosciences Australia Pty Ltd, priority 2002, dated 2011)

Experiments:
Type in all cases: biochemical
Zap70 = target: T1, Zap70 (Homo sapiens, UniProt P43403); assay: Zap70 kinase assay (ELISA or Alphascreen); details: read-out: Zap70 inhibition of enzyme activity
T1 sequence (P43403 338-600 limits assumed): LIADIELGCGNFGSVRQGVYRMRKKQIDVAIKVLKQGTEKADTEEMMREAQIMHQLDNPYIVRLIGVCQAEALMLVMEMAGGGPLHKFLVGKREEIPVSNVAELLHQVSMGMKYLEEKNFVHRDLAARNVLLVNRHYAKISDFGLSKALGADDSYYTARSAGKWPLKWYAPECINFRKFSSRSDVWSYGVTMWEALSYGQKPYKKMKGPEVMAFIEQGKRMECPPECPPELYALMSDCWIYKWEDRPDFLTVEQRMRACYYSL
Protocol: (§1) Kinase assays were performed in a 96 well capture-based ELISA assay or in 384 well Optiplates (Packard) using an Alphascreen Protein Tyrosine Kinase kit. In either case using approximately 1.5 μg of affinity purified PTK domain in the presence of 50 mM HEPES, pH 7.5, 10 mM MgCl2, 150 mM NaCl and 10 μM-1 mM ATP. The biotinylated substrate biotin-EGPWLEEEEEAYGWMDF-NH2 (SEQ ID NO:9) (final concentration 5 μM) was used as substrate. In the ELISA assay tyrosine phosphorylation was quantitated following transfer to an avidin coated ELISA plate using peroxidase-linked anti-phosphotyrosine antibody PY20. In the Alphascreen assay, Alphascreen phosphotyrosine acceptor beads followed by streptavidin donor beads were added under subdued light. The ELISA plates were read on a BMG Fluorostar, the Alphascreen plates were read on a Packard Fusion Alpha. Inhibitors were added to the assays fifteen minutes prior to the addition of ATP. Inhibitors were added in aqueous […] concentrations never exceeding 1%.

fms = target: T2, fms (Homo sapiens, UniProt P07333); assay: fms kinase assay (ELISA or Alphascreen); details: read-out: fms inhibition of enzyme activity
T2 sequence (P07333 582-910 limits assumed): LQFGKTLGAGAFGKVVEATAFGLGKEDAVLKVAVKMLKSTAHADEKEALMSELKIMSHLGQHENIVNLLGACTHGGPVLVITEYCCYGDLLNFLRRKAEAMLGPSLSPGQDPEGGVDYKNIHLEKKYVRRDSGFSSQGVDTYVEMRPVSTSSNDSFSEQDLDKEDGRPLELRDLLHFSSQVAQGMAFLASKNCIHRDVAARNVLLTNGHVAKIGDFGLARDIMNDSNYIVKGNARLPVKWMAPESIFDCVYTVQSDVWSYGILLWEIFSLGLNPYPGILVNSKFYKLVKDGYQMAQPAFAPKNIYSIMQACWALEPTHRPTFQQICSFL
Protocol: as §1

human JAK3 = target: T3, human JAK3 (Homo sapiens, UniProt P52333); assay: JAK3 kinase assay (ELISA or Alphascreen); details: read-out: Jak3 inhibition of enzyme activity
T3 construct: The kinase domain of human JAK3 was amplified from U937mRNA; His tag (from the pFastBac HTb vector) (N); made in house; host or cells: baculovirus; Sf9 for virus, High Five insect cells for production
Description: The kinase domain of human JAK3 was amplified from U937mRNA using the polymerase chain reaction with the following primers: […]
JAK3 PCR products were cloned into the pFastBac HTb expression vector (Gibco) via the Xho I and Kpn I sites. The JAK3 plasmid was then transformed into competent DH10Bac cells (Gibco), and the recombinant baculovirus produced prepared for transfection into Sf9 insect cells.
(§2) Baculovirus preparations from each of the JAK family members were infected into five liters of High Five cells (Invitrogen) grown in High Five serum free medium (Invitrogen) to a cell density of approximately 1-2×10^6 cells/ml. Cells are infected with virus at a MOI of 0.8-3.0. Cells were harvested and lysed. JAK kinase domains were purified by affinity chromatography on a Probond (Invitrogen) nickel chelate affinity column.
as §1

hck = hck (Homo sapiens, UniProt P08631); assay: hck kinase assay (ELISA or Alphascreen); details: read-out: hck inhibition of enzyme activity
Protocol: as §1

fes = fes (Homo sapiens, UniProt P07332); assay: fes kinase assay (ELISA or Alphascreen); details: read-out: fes inhibition of enzyme activity
Protocol: as §1

human JAK2 = target: T4, human JAK2 (Homo sapiens, UniProt O60674); assay: JAK2 kinase assay (ELISA or Alphascreen); details: read-out: Jak2 inhibition of enzyme activity
T4 construct: The kinase domain of human JAK2 was amplified from U937mRNA; His tag (from the pFastBac HTc vector) (N); made in house; host or cells: baculovirus; Sf9 for virus, High Five insect cells for production
Description: The kinase domain of human JAK2 was amplified from U937mRNA using the polymerase chain reaction with the following primers: […]
JAK2 PCR products were doped into the pFastBac HTc expression vector (Gibco) via the Sal I and Not I sites. The JAK2 plasmid was than transformed into competent DH10Bac cells (Gibco), and the recombinant baculovirus produced prepared for transfection into Sf9 insect cells.
as §2, §1

abl = target: T5, abl (Homo sapiens, UniProt P00519); assay: abl kinase assay (ELISA or Alphascreen); details: read-out: abl inhibition of enzyme activity
T5 sequence (P00519 242-493 limits assumed): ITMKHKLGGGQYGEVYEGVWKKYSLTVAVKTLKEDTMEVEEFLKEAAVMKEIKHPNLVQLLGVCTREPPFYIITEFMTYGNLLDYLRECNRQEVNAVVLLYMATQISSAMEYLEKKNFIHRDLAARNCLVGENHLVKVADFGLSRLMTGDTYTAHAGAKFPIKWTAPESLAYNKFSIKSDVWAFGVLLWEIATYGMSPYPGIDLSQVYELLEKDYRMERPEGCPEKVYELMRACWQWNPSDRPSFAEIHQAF
Protocol: as §1

T4 sequence (O60674 849-1124 limits assumed): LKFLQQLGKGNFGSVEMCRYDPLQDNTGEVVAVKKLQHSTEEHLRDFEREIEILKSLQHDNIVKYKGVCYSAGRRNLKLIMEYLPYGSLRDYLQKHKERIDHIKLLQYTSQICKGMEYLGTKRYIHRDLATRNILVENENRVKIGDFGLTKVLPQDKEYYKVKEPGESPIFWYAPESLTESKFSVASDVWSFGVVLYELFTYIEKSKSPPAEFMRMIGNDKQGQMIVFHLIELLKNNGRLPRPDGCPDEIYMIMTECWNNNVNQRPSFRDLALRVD
fes, sequence (P07332 561-822 limits assumed, species assumed): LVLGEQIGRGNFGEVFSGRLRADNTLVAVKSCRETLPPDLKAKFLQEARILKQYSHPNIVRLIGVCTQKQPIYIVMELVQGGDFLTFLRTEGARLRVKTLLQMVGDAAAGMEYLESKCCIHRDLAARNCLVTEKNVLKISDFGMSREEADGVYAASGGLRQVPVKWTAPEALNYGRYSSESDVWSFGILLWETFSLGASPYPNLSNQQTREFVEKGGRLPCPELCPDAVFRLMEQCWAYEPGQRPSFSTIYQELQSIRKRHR
hck, sequence (P08631 262-515 limits assumed, species assumed): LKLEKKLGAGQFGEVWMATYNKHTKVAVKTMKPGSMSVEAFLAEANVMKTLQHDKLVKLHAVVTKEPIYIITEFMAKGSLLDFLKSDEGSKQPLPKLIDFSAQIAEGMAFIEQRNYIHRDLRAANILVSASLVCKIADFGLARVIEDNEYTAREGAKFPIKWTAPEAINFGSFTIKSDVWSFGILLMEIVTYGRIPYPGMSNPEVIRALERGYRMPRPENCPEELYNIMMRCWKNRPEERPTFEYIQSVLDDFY
T3 sequence (P52333 822-1111 limits assumed): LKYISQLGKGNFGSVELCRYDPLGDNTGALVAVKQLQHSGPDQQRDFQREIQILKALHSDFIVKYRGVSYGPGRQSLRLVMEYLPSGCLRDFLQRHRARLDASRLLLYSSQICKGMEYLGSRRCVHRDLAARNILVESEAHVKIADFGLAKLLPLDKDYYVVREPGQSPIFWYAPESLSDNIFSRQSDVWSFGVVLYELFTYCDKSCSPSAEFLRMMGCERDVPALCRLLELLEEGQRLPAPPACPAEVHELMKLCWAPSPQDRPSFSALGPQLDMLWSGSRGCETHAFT

SMILES | inhibition at 10 µM (Zap70) | inhibition at 10 µM (fms) | inhibition at 10 µM (human JAK3) | inhibition at 10 µM (hck) | inhibition at 10 µM (fes) | inhibition at 10 µM (human JAK2) | inhibition at 10 µM (abl)
C[C@@H](NC(=O)c1cncc(-c2ccc3c(c2)OCO3)c1)c1ccccc1 | < 50% | < 50% | < 50% | < 50% | < 50% | < 50% | –
Cc1cc(-c2cncc(C(=O)N[C@H](C)c3ccccc3)c2)cc(C)c1O | < 50% | – | – | < 50% | < 50% | < 50% | < 50%
COc1cc(-c2cncc(C(=O)Nc3ccccc3C)c2)ccc1O | < 50% | < 50% | < 50% | ≥ 50% | < 50% | < 50% | –
O=C(NCc1ccc(Cl)c(Cl)c1)c1cncc(-c2cccs2)c1 | < 50% | < 50% | < 50% | < 50% | < 50% | < 50% | –
Cc1cc(-c2cncc(C(=O)NC(C)CCc3ccccc3)c2)cc(C)c1O (stereo not drawn) | < 50% | < 50% | < 50% | < 50% | < 50% | < 50% | –
COc1cc(-c2cncc(C(=O)NC(C)C)c2)c(Cl)c(OC)c1OC | < 50% | < 50% | < 50% | < 50% | < 50% | < 50% | –
COc1cc(CNC(=O)c2cncc(-c3cc(C)c(O)c(C)c3)c2)cc(OC)c1 | < 50% | ≥ 50% | < 50% | < 50% | < 50% | < 50% | –
C[C@@H](NC(=O)c1cncc(-c2ccc(O)cc2)c1)c1ccccc1 | < 50% | – | – | < 50% | < 50% | < 50% | < 50%
COc1ccc(NC(=O)c2cncc(-c3ccc4c(c3)OCO4)c2)c(OC)c1 | – | < 50% | < 50% | < 50% | < 50% | < 50% | –
COc1cc(NC(=O)c2cncc(-c3cc(OC)c(OC)c(OC)c3Cl)c2)cc(OC)c1OC | < 50% | < 50% | < 50% | < 50% | < 50% | < 50% | –
C[C@H](NC(=O)c1cncc(-c2ccc3c(c2)OCO3)c1)c1ccccc1 | < 50% | < 50% | < 50% | < 50% | < 50% | < 50% | –
O=C(NCCc1ccccc1)c1cncc(-c2ccc(O)cc2)c1 | < 50% | < 50% | < 50% | < 50% | < 50% | < 50% | –
COc1cc(-c2cncc(C(=O)NCCc3ccccc3)c2)c(Cl)c(OC)c1OC | < 50% | < 50% | < 50% | < 50% | < 50% | < 50% | –
CN(Cc1ccccc1)C(=O)c1cncc(-c2ccc(O)cc2)c1 | < 50% | < 50% | < 50% | < 50% | < 50% | < 50% | –
O=C(NCc1ccncc1)c1cncc(-c2cccs2)c1 | < 50% | < 50% | < 50% | < 50% | < 50% | < 50% | –

Now from value to compound:

inhibition at 10 µM (Zap70) | inhibition at 10 µM (fms) | inhibition at 10 µM (human JAK3) | inhibition at 10 µM (hck) | inhibition at 10 µM (fes) | inhibition at 10 µM (human JAK2) | inhibition at 10 µM (abl) | SMILES
< 50% | < 50% | < 50% | < 50% | < 50% | < 50% | – | COc1ccc(CNC(=O)c2cncc(-c3ccc4c(c3)OCO4)c2)cc1
≥ 50% | < 50% | < 50% | < 50% | < 50% | < 50% | – | COc1cccc(-c2cncc(C(=O)NCc3cccnc3)c2)c1
< 50% | ≥ 50% | < 50% | ≥ 50% | < 50% | < 50% | – | Cc1ccccc1NC(=O)c1cncc(-c2ccc(O)cc2)c1
< 50% | < 50% | < 50% | < 50% | < 50% | < 50% | – | COc1cccc([C@H](C)NC(=O)c2cncc(-c3ccc(O)c(OC)c3)c2)c1
< 50% | – | – | < 50% | < 50% | < 50% | < 50% | COc1cc(CNC(=O)c2cncc(-c3ccc4c(c3)OCO4)c2)cc(OC)c1
< 50% | ≥ 50% | < 50% | ≥ 50% | < 50% | < 50% | – | COc1cc(-c2cncc(C(=O)Nc3ccc(F)cc3C)c2)c(Cl)c(OC)c1OC
< 50% | < 50% | < 50% | – | < 50% | < 50% | < 50% | COc1cc(CNC(=O)c2cncc(-c3ccc(O)cc3)c2)cc(OC)c1
< 50% | – | – | < 50% | < 50% | < 50% | < 50% | O=C(NCc1ccc(N2CCOCC2)cc1)c1cncc(-c2cccs2)c1
< 50% | < 50% | < 50% | – | < 50% | < 50% | < 50% | Cc1ccccc1NC(=O)c1cncc(-c2cccnc2)c1
< 50% | < 50% | < 50% | < 50% | < 50% | < 50% | – | CC(C)C(CO)NC(=O)c1cncc(-c2cccs2)c1 (stereo not drawn)
< 50% | < 50% | < 50% | < 50% | < 50% | < 50% | – | Cc1ccc(C)c(NC(=O)c2cncc(-c3ccc(F)cc3)c2)c1
< 50% | ≥ 50% | < 50% | ≥ 50% | – | < 50% | – | Cc1ccc(F)cc1NC(=O)c1cncc(-c2cc(C)c(O)c(C)c2)c1
